# Source: ChEMBL document CHEMBL1938343, “Lead optimisation of selective non-zinc binding inhibitors of MMP13. Part 2” (Bioorg Med Chem Lett, 2012)
# Columns and labels:
# [1] = target: T1, A disintegrin and metalloproteinase with thrombospondin motifs 1 (Homo sapiens) (UniProt Q9UHI8); experiment: Inhibition of ADAM-TS1 dimethoxyfluorescein-Ser-Pro-Leu-Ala-Gln-Ala- Val-Arg-ser-Ser-Arg-Cys-fluorescein
# T1 sequence (whole entry): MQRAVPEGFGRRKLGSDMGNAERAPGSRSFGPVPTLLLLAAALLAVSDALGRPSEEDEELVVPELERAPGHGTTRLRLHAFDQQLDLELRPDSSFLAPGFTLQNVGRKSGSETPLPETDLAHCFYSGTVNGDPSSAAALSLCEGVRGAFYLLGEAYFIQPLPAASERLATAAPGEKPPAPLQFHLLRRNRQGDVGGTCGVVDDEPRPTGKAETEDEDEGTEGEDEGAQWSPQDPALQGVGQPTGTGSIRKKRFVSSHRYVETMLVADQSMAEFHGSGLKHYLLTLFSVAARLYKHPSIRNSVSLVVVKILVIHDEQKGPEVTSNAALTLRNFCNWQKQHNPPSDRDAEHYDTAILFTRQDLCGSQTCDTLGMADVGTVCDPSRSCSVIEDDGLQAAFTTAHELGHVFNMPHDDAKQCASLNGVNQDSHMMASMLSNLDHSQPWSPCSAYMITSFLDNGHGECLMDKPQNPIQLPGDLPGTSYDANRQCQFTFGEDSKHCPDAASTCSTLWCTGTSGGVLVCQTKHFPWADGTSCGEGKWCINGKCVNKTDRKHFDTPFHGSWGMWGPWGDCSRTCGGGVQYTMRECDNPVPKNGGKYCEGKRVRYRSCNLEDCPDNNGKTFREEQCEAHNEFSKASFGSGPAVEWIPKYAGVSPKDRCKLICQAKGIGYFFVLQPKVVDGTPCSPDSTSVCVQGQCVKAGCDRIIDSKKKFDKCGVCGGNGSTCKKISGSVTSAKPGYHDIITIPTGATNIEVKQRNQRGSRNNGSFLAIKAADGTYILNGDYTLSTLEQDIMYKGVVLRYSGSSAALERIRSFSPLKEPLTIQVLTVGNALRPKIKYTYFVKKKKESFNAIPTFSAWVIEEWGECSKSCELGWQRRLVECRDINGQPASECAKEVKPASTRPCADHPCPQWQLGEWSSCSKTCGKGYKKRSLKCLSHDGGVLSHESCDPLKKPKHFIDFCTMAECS
# [2] = target: T2, A disintegrin and metalloproteinase with thrombospondin motifs 5 (Homo sapiens) (UniProt Q9UNA0); experiment: Inhibition of ADAM-TS5 using dimethoxyfluorescein-Ser-Pro-Leu-Ala-Gln-Ala- Val-Arg-ser-Ser-Arg-Cys-fluorescein as substrate
# T2 sequence (whole entry): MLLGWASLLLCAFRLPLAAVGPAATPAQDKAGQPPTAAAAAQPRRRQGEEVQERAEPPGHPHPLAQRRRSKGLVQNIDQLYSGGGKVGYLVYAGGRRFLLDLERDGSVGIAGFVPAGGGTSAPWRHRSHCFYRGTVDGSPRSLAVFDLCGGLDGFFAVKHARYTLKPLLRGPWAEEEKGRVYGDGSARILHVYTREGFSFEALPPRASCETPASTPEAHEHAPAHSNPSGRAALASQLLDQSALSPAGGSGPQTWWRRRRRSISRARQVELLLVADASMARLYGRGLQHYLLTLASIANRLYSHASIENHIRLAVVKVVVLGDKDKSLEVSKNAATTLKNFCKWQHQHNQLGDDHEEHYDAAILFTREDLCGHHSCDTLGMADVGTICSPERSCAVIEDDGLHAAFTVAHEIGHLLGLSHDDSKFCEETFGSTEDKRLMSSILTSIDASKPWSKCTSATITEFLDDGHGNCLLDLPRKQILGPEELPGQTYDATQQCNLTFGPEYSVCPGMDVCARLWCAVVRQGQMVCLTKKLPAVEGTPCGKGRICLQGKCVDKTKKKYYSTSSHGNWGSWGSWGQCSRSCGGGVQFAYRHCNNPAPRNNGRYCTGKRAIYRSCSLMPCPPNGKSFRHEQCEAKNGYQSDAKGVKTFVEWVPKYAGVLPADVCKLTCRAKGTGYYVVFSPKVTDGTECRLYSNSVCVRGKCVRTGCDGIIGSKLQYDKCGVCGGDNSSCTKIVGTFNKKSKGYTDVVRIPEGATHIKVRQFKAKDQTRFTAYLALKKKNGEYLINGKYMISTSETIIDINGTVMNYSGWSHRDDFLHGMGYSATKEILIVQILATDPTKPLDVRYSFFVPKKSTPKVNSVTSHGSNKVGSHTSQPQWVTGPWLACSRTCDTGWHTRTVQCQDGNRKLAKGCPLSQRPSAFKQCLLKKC
# [3] = target: T3, A disintegrin and metalloproteinase with thrombospondin motifs 4 (Homo sapiens) (UniProt O75173); experiment: Inhibition of ADAM-TS4 using dimethoxyfluorescein-Ser-Pro-Leu-Ala-Gln-Ala- Val-Arg-ser-Ser-Arg-Cys-fluorescein as substrate
# T3 sequence (whole entry): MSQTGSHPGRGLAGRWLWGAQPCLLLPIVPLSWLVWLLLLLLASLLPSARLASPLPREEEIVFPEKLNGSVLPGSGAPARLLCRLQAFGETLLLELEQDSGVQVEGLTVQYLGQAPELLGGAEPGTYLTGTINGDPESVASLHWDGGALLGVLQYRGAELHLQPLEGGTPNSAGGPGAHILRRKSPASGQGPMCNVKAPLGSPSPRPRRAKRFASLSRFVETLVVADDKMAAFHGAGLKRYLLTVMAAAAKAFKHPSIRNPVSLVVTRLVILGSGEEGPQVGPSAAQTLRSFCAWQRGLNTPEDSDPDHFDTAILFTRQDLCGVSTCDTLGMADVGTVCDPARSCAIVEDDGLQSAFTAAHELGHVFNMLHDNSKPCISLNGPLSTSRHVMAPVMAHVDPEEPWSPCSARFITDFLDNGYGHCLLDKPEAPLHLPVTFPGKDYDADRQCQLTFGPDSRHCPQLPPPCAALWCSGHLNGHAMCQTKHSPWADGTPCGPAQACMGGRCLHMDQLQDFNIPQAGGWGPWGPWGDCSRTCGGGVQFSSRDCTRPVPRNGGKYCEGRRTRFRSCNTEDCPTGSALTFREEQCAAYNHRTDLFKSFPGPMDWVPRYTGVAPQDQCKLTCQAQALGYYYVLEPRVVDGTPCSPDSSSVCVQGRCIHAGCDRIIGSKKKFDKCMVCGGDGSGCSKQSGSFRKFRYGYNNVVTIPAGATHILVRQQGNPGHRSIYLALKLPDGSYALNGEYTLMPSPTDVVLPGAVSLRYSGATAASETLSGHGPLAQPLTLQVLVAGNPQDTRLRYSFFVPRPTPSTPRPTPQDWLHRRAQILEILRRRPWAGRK
# [4] = target: Matrix metalloproteinase-14 (Homo sapiens, UniProt P50281); experiment: Inhibition of MMP14 using Mca-Pro-cyclohexyl-Ala-Gly-Nva-His-Ala- Dap(Dnp)-NH2 as substrate by fluorometric analysis
# [5] = target: Matrix metalloproteinase-9 (Homo sapiens, UniProt P14780); experiment: Inhibition of MMP9 using Mca-Pro-cyclohexyl-Ala-Gly-Nva-His-Ala- Dap(Dnp)-NH2 as substrate by fluorometric analysis
# Sequence of Matrix metalloproteinase-9 (P14780 whole entry): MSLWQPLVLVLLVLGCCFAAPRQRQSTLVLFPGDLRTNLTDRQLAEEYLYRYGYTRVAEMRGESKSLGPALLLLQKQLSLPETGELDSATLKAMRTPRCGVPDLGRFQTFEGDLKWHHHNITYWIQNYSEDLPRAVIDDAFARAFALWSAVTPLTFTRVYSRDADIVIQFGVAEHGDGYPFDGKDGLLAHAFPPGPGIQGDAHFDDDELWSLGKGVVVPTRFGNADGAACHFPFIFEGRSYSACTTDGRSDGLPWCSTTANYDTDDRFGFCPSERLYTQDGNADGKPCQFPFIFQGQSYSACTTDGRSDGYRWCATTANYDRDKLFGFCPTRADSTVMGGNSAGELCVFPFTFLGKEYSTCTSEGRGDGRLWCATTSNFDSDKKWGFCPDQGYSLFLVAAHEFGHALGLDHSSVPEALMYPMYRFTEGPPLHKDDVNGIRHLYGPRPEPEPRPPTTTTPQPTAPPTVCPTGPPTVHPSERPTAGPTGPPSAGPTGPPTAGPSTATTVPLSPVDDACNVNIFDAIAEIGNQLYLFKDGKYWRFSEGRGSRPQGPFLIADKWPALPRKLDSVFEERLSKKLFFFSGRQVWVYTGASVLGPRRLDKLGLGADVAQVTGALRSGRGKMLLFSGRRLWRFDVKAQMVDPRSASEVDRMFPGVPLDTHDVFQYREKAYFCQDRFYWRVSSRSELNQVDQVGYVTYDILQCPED
# [6] = target: 72 kDa type IV collagenase (Homo sapiens, UniProt P08253); experiment: Inhibition of MMP2 using Mca-Pro-cyclohexyl-Ala-Gly-Nva-His-Ala- Dap(Dnp)-NH2 as substrate by fluorometric analysis; conditions: read-out: pIC50 (converted)
# Sequence of 72 kDa type IV collagenase (P08253 whole entry): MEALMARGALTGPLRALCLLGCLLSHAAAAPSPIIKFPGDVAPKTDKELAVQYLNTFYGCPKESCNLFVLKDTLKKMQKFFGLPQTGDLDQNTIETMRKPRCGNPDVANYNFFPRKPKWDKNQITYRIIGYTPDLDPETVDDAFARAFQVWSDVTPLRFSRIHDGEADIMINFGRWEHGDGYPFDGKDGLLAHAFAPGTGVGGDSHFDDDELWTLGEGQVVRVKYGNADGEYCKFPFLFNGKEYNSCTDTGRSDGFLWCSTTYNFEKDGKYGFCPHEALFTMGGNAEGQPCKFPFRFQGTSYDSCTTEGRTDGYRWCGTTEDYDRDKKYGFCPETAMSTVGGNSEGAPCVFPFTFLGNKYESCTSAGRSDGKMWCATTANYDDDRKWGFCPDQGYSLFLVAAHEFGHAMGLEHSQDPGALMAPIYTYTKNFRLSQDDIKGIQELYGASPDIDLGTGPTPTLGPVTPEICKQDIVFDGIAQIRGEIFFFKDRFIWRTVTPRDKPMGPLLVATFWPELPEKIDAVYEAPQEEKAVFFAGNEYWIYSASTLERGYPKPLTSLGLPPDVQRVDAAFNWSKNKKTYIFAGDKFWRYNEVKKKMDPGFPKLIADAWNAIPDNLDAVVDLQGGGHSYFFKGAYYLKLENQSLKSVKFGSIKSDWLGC
# Collagenase 3 = Collagenase 3 (Homo sapiens, UniProt P45452); experiment: Inhibition of recombinant human MMP13 using Mca-Pro-cyclohexyl-Ala-Gly-Nva-His-Ala- Dap(Dnp)-NH2 as substrate by fluorometric analysis; conditions: read-out: pIC50 (converted)
# [7] = target: Macrophage metalloelastase (Homo sapiens, UniProt P39900); experiment: Inhibition of MMP12 using Mca-Pro-cyclohexyl-Ala-Gly-Nva-His-Ala- Dap(Dnp)-NH2 as substrate by fluorometric analysis
# Sequence of Macrophage metalloelastase (P39900 whole entry): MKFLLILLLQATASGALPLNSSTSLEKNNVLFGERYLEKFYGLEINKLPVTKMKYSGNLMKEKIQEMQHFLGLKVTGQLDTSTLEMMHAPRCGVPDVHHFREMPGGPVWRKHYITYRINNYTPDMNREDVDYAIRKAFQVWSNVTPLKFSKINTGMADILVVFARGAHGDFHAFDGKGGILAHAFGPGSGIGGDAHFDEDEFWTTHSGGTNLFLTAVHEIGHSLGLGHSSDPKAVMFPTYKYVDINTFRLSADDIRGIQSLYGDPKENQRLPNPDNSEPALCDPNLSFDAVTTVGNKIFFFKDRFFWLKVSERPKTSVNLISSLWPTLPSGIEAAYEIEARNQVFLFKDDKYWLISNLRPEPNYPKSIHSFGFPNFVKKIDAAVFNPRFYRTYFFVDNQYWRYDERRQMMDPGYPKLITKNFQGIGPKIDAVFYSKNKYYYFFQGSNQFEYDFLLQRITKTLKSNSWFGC
# [8] = Intrinsic clearance in Sprague-Dawley rat hepatocytes assessed per 10^6 cells; type: ADME, cell-based, Hepatocyte; conditions: Sprague-Dawley, read-out: CLH
# [9] = Thermodynamic solubility of the compound; conditions: Therm_solubility
# [10] = Intrinsic clearance in human microsomes; type: ADME, Microsome
# Rattus norvegicus = experiment: (§1) Oral bioavailability in rat; type: ADME, organism-based; conditions: in vivo
# [11] = Lipophilicity, log D of the compound; conditions: octanol/water
# [12] = Fraction unbound in rat; type: ADME, organism-based; conditions: in vivo
# [13] = Apparent permeability across apical to basolateral side in human Caco2 cells at 10 uM; type: ADME, cell-based; conditions: Caco-2
# [14] = Fraction unbound in human; type: ADME, organism-based; conditions: in vivo
# Cytochrome P450 3A4 = Cytochrome P450 3A4 (Homo sapiens, UniProt P08684); experiment: Inhibition of CYP3A4; type: ADME; conditions: read-out: pIC50 (converted)
# Sequence of Cytochrome P450 3A4 (P08684 whole entry): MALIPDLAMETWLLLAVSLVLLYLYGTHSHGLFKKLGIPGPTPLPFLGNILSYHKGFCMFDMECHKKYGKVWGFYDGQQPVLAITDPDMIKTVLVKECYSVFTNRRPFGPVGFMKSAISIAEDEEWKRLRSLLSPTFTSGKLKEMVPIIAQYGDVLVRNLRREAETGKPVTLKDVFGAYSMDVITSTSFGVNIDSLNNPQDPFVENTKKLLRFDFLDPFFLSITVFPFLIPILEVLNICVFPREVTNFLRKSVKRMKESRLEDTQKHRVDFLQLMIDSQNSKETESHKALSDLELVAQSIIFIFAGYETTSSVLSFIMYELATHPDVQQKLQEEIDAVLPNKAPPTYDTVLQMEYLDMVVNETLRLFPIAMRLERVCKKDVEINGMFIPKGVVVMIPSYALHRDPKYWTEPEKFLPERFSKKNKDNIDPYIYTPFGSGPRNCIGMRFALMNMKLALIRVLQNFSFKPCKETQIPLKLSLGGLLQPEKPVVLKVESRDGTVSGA
# [15] = Half life in rat at 2 mg/kg, iv; type: ADME, organism-based; set-up: dose 2 mg/kg, route intravenous; conditions: in vivo
# [16] = Volume of distribution at steady state in rat at 2 mg/kg, iv; type: ADME, organism-based; set-up: dose 2 mg/kg, route intravenous; conditions: in vivo, read-out: Vdss
# Cytochrome P450 2C19 = Cytochrome P450 2C19 (Homo sapiens, UniProt P33261); experiment: Inhibition of CYP2C19; type: ADME; conditions: read-out: pIC50 (converted)
# Sequence of Cytochrome P450 2C19 (P33261 whole entry): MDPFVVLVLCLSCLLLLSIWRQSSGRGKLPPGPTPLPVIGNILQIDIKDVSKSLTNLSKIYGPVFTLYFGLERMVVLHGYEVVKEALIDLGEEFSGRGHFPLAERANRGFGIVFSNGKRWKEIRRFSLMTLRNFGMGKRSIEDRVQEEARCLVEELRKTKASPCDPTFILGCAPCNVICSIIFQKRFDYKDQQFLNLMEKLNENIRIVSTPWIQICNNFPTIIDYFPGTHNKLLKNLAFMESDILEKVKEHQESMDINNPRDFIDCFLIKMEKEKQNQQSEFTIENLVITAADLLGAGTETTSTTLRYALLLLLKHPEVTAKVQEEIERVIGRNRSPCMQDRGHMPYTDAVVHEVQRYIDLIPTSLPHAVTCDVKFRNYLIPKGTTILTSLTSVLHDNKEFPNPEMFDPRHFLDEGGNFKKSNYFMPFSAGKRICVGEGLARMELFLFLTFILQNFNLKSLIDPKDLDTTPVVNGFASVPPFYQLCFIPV
# [17] = Apparent permeability across basolateral to apical side in human Caco2 cells at 10 uM; type: ADME, cell-based; conditions: Caco-2
# [18] = Clearance in rat at 2 mg/kg, iv; type: ADME, organism-based; set-up: dose 2 mg/kg, route intravenous; conditions: in vivo
# Cytochrome P450 2D6 = Cytochrome P450 2D6 (Homo sapiens, UniProt P10635); experiment: Inhibition of CYP2D6; type: ADME; conditions: read-out: pIC50 (converted)
# Sequence of Cytochrome P450 2D6 (P10635 whole entry): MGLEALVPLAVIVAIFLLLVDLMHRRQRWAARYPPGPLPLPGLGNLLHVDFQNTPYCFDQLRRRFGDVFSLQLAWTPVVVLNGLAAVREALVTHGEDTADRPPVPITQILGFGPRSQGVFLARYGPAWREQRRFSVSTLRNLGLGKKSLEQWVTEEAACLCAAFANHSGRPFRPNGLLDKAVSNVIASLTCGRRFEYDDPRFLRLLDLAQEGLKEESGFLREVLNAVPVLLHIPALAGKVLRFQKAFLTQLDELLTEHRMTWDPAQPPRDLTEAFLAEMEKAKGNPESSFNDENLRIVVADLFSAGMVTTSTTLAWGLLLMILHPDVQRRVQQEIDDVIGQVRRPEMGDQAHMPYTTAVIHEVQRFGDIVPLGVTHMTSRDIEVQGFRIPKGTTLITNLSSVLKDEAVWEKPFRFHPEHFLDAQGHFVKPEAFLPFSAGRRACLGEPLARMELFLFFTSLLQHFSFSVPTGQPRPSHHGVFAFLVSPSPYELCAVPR
# Cytochrome P450 2C9 = Cytochrome P450 2C9 (Homo sapiens, UniProt P11712); experiment: Inhibition of CYP2C9; type: ADME; conditions: read-out: pIC50 (converted)
# Sequence of Cytochrome P450 2C9 (P11712 whole entry): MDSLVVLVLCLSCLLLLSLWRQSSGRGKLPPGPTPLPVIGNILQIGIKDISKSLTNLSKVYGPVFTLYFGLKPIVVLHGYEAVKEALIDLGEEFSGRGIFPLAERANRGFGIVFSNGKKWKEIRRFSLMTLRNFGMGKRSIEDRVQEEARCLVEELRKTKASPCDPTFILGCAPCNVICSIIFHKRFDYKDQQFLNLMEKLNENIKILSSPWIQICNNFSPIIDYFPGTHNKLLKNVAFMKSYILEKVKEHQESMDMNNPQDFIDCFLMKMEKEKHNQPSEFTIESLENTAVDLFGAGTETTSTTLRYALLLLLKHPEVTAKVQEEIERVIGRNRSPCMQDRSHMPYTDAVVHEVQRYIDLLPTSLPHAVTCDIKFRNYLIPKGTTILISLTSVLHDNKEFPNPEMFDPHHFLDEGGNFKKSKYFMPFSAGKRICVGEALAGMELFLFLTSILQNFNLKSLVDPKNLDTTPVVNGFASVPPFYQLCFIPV
# Cytochrome P450 1A2 = target: T4, Cytochrome P450 1A2 (Homo sapiens, UniProt P05177); experiment: Inhibition of CYP1A2; type: ADME
# T4 sequence (P05177 whole entry): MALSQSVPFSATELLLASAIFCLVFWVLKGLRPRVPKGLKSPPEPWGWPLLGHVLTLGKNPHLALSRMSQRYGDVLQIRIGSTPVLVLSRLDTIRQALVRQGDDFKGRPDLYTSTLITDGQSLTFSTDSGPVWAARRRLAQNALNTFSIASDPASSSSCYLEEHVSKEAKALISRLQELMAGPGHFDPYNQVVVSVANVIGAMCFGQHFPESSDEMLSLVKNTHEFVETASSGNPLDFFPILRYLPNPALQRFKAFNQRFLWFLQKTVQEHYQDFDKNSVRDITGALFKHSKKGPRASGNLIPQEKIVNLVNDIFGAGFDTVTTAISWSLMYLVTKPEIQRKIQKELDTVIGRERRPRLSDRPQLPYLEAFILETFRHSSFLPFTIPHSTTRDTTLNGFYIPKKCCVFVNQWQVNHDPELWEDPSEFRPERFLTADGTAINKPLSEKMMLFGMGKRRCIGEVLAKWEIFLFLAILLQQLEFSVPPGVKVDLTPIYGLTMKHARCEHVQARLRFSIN
# [19] = as §1; type: ADME, organism-based; conditions: in vivo
# [20] = Oral bioavailability in rat at 2 to 50 mg/kg; type: ADME, organism-based; conditions: in vivo
smiles,measurement,setting,value
"O=C(NC1CCCS(=O)(=O)C1)c1ccc(Oc2ccc(C#C[C@]3(O)CN4CCC3CC4)cc2)cc1 (single isomer, unassigned; diastereomer 1)",INH,[1],> 100 µM
same,INH,[2],> 10 µM
same,INH,[3],> 10 µM
"O=C(NC1CCCS(=O)(=O)C1)c1ccc(Oc2ccc(C#C[C@]3(O)CN4CCC3CC4)cc2)cc1 (single isomer, unassigned; diastereomer 2)",pIC50,[4],< 5
same,pIC50,[5],< 5
same,IC50,[6],2.51 µM
same,IC50,Collagenase 3,10 nM
same,pIC50,[7],< 5
same,hepatocyte CLint,[8],3.4 µL/min/1e6 cells
same,solubility thermodynamic,[9],120 µM
same,microsomal CLint,[10],< 2 µL/min/mg
same,F,Rattus norvegicus,0%
CNC(=O)c1ccc(Oc2ccc(C#C[C@]3(O)CN4CCC3CC4)cc2)cc1,logD,[11],2
same,fraction unbound,[12],0.26
same,Papp A→B at 10 µM,[13],23 ×10⁻⁶ cm/s
same,fraction unbound,[14],0.24
same,IC50,[4]; read-out: pIC50 (converted),> 100 µM
same,IC50,[5]; read-out: pIC50 (converted),> 100 µM
same,IC50,Cytochrome P450 3A4,> 10 µM
same,IC50,[6],20 µM
same,half-life,[15],114 min
same,Vd,[16],2.4 L/kg
same,IC50,Collagenase 3,200 nM
same,IC50,Cytochrome P450 2C19,> 10 µM
same,Papp B→A at 10 µM,[17],34 ×10⁻⁶ cm/s
same,IC50,[7]; read-out: pIC50 (converted),> 100 µM
same,clearance,[18],16 mL/min/kg
same,hepatocyte CLint,[8],2.7 µL/min/1e6 cells
same,solubility thermodynamic,[9],> 1600 µM
same,IC50,Cytochrome P450 2D6,> 10 µM
same,IC50,Cytochrome P450 2C9,> 10 µM
same,IC50,Cytochrome P450 1A2,> 10 µM
same,microsomal CLint,[10],3.9 µL/min/mg
same,bioavailability,[19],54%
O=C(NCc1ccncn1)c1ccc(Oc2ccc(C#C[C@]3(O)CN4CCC3CC4)cc2)cc1,logD,[11],1.8
same,Papp A→B at 10 µM,[13],6.7 ×10⁻⁶ cm/s
same,bioavailability,[20],2%
same,Papp B→A at 10 µM,[17],33 ×10⁻⁶ cm/s
same,hepatocyte CLint,[8],3.2 µL/min/1e6 cells
